# Laboratory results as given in ChEMBL document CHEMBL1137619, “Synthesis, structure-activity relationship and in vivo antiinflammatory efficacy of substituted dipiperidines as CCR2 antagonists” (J Med Chem, 2007).
# What was measured:
# Type in all cases: ADME, organism-based
# Settings in all cases: in vivo
# [1] = Bioavailability in rat at 10 mg/kg, po
# [2] = Bioavailability in rat at 10 mg/kg, ip
# [3] = Half life in rat at 10 mg/kg, po; parameters: dose 10 mg/kg, route oral
compound,measurement,setting,value
O=C(O)[C@H](C1CCN(C(=O)/C=C/c2cc(F)c(F)c(F)c2)CC1)N1CCC(c2c[nH]c3ccccc23)CC1,bioavailability,[1],15%
same,bioavailability,[2],100%
same,half-life,[3],7 h
